Holding throughout (format): functional
Test [1] relates to Bacillus subtilis. Kind of test: Antimicrobial activity against Bacillus subtilis assessed as diameter of growth inhibition zone after 48 hr by agar cup plate method.
Test [2] has as its system Escherichia coli. Kind of test: Antimicrobial activity against Escherichia coli assessed as diameter of growth inhibition zone after 48 hr by agar cup plate method.
The test system of test [3] is Salmonella typhi. Kind of test: Antimicrobial activity against Salmonella enterica subsp. enterica serovar Typhi assessed as diameter of growth inhibition zone after 48 hr by agar cup plate method.
The subject of test [4] is Staphylococcus aureus. Kind of test: Antimicrobial activity against Staphylococcus aureus assessed as diameter of growth inhibition zone after 48 hr by agar cup plate method.
The subject of test [5] is Aspergillus niger. Kind of test: Antimicrobial activity against Aspergillus niger assessed as diameter of growth inhibition zone.

For `CN[C@@H]1[C@H](O[C@H]2[C@H](O[C@H]3[C@H](O)[C@@H](O)[C@H](N=C(N)N)[C@@H](O)[C@@H]3N=C(N)N)O[C@@H](C)[C@]2(O)C=O)O[C@@H](CO)[C@H](O)[C@H]1O` [STREPTOMYCIN], the “inhibition zone (IZ)” value in test [1] was over 15 mm; in test [2], 10 mm; in test [3], over 15 mm; in test [4] it was over 15 mm; in test [5] it was over 15 mm.

As for `Cc1c/c(=N/CC/N=c2/cc(C)c3ccc(O)c(/N=N/c4c(C)n(C)n(-c5ccccc5)c4=O)c3o2)oc2c(/N=N/c3c(C)n(C)n(-c4ccccc4)c3=O)c(O)ccc12`, the “inhibition zone (IZ)” value is listed as over 15 mm in test [1], 10 mm in test [2], 10 mm in test [4] and over 15 mm in test [5].

For `Cc1c/c(=N/CC/N=c2/cc(C)c3ccc(O)c(/N=N/c4cccc5ccccc45)c3o2)oc2c(/N=N/c3cccc4ccccc34)c(O)ccc12`, the “inhibition zone (IZ)” value in test [1], in test [2], in test [3], in test [4] and in test [5] was over 15 mm throughout.

With `Cc1c/c(=N/CC/N=c2/cc(C)c3ccc(O)c(/N=N/c4cccnc4)c3o2)oc2c(/N=N/c3cccnc3)c(O)ccc12`, the “inhibition zone (IZ)” value in test [1] is recorded as over 15 mm; in test [2], 10 mm; in test [3] it was over 15 mm; in test [4], over 15 mm; in test [5], under 5 mm.

Regarding `Cc1c/c(=N/CC/N=c2/cc(C)c3ccc(O)c(/N=N/c4ccccn4)c3o2)oc2c(/N=N/c3ccccn3)c(O)ccc12`, the “inhibition zone (IZ)” value in test [1], in test [2], in test [3], in test [4] and in test [5] was over 15 mm each time.

Regarding `Cc1c/c(=N/CC/N=c2/cc(C)c3ccc(O)c(/N=N/c4ccncc4)c3o2)oc2c(/N=N/c3ccncc3)c(O)ccc12`, the “inhibition zone (IZ)” value in test [1] was 10 mm; in test [2], over 15 mm; in test [3] it was 10 mm; in test [4], over 15 mm; in test [5] it was over 15 mm.

Regarding `CC1(C)S[C@@H]2[C@H](NC(=O)[C@H](N)c3ccccc3)C(=O)N2[C@H]1C(=O)O` [AMPICILLIN], the “inhibition zone (IZ)” value in test [1] is over 15 mm; in test [2], over 15 mm; in test [3] it was over 15 mm; in test [4], 10 mm; in test [5], 10 mm.

`Cc1c/c(=N/CC/N=c2/cc(C)c3ccc(O)c(/N=N/C4=NCCS4)c3o2)oc2c(/N=N/C3=NCCS3)c(O)ccc12`: the “inhibition zone (IZ)” value is given as 10 mm in test [1]; over 15 mm in test [2]; over 15 mm in test [3]; over 15 mm in test [4]; over 15 mm in test [5].

Values taken from ChEMBL document CHEMBL3045724, “Synthesis, biopharmaceutical characterization, and antimicrobial study of novel azo dyes of 7-hydroxy-4-methylcoumarin” (2013).
